From ChEMBL document CHEMBL5244234, “Janus kinases (JAKs): The efficient therapeutic targets for autoimmune diseases and myeloproliferative disorders” (Eur J Med Chem, 2020)

Key:
[1] = target: Signal transducer and activator of transcription 3 (Homo sapiens, UniProt P40763); assay: Inhibition of IL6-stimulated STAT3 signalling in human CD4+ T cells; type: cell-based, T cell
HCT-116 [2] = assay: Antitumor activity against human HCT-116 cells xenografted in Balb/c mouse assessed as tumor growth inhibition at 15 mg/kg relative to control; type: functional; details: read-out: TGI
HCT-116 [3] = assay: Antitumor activity against human HCT-116 cells xenografted in Balb/c mouse assessed as tumor growth inhibition at 20 mg/kg relative to control; type: functional; details: read-out: TGI
Rattus norvegicus [4] = assay: Antiarthritic activity in CFA-induced Lewis rat assessed as increase in hind paw volume at 3 to 10 mg/kg administered for 2 weeks by plethysmometer relative to control; type: functional; details: dose 3-10 mg/kg
Rattus norvegicus [5] = assay: Antiarthritic activity in CFA-induced Lewis rat assessed as increase in hind paw volume at 1 mg/kg administered for 2 weeks by plethysmometer relative to control; type: functional
HEL = assay: cells; details: Homo sapiens, 72 h
BaF3 [6] = assay: Antiproliferative activity against mouse BaF3 cells harboring JAK2 V617F mutant assessed as inhibition of cell proliferation incubated for 72 hrs by XTT assay; type: toxicity, cell-based; details: BaF3, 72 h
[7] = Antiproliferative activity against mouse BaF3 cells assessed as inhibition of cell proliferation incubated for 72 hrs by XTT assay; type: toxicity, cell-based
[8] = target: T1, Tyrosine-protein kinase JAK1 (Homo sapiens, UniProt P23458); assay: Competitive inhibition of JAK1 (unknown origin) in the presence of ATP
[9] = target: T2, Tyrosine-protein kinase JAK2 (Homo sapiens, UniProt O60674); assay: Competitive inhibition of JAK2 (unknown origin) in the presence of ATP
U-266 = assay: Antiproliferative activity against human U266B1 cells assessed as inhibition of cell proliferation; type: functional, cell-based
[10] = Inhibition of IL-2 stimulated human T cell proliferation; type: toxicity, cell-based
[11] = Inhibition of STAT5 phosphorylation in IL-2 stimulated mouse HT-2 cells; type: cell-based; details: HT2
[12] = target: T1, Tyrosine-protein kinase JAK1; assay: Inhibition of JAK1 (unknown origin) assessed as inhibition constant
[13] = Inhibition of T cell proliferation in Balb/c mouse spleenocytes by MLR assay; type: toxicity, cell-based; details: Splenocyte
B cell = assay: Inhibition of cell proliferation in CD40L/IL-4-induced human B cells; type: toxicity, cell-based
[14] = Inhibition of T cell proliferation in CBA mouse spleenocytes by MLR assay; type: toxicity, cell-based; details: Splenocyte
[15] = target: Proto-oncogene tyrosine-protein kinase receptor Ret (Homo sapiens, UniProt P07949); assay: Inhibition of RET (unknown origin)
[16] = target: T3, Tyrosine-protein kinase JAK3 (Homo sapiens, UniProt P52333); assay: Inhibition of JAK3 (unknown origin) by Lanthascreen kinase assay
T3 sequence (P52333 whole entry): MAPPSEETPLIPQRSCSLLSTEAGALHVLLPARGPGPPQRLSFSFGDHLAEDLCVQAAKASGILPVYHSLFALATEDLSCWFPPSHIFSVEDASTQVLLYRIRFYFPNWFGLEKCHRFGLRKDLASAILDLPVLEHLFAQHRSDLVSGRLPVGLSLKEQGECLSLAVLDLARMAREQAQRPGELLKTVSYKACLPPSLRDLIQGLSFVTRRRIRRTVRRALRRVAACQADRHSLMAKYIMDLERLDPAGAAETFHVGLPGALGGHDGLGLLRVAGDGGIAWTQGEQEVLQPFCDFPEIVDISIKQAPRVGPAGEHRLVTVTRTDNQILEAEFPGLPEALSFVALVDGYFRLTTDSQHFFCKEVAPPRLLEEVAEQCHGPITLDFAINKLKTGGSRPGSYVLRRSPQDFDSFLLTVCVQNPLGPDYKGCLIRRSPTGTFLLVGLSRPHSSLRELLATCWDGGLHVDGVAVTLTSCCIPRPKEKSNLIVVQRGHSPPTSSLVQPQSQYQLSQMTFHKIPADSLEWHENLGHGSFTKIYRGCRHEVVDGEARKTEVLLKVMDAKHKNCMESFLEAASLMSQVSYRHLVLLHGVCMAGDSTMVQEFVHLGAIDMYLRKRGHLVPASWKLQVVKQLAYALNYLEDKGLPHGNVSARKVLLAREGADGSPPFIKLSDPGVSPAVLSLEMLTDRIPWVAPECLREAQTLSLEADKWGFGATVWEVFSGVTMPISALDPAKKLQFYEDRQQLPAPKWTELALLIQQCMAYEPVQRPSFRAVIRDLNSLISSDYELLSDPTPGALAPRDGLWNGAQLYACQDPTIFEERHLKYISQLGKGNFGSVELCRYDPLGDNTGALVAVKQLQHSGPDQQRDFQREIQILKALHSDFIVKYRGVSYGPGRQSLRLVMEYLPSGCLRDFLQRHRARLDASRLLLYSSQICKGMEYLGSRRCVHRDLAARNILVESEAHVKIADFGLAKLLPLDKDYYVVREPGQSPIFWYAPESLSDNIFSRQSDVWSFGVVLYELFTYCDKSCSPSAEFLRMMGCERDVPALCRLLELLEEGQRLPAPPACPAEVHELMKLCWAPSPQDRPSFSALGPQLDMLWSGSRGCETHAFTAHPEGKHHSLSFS

[17] = target: T2, Tyrosine-protein kinase JAK2; assay: Inhibition of JAK2 (unknown origin) by Lanthascreen kinase assay
[18] = target: T3, Tyrosine-protein kinase JAK3; assay: Inhibition of recombinant human JAK3 (781 to 1124 residues)
[19] = target: T4, Non-receptor tyrosine-protein kinase TYK2 (Homo sapiens, UniProt P29597); assay: Inhibition of recombinant human TYK2 (870 to 1187 residues)
[20] = target: T1, Tyrosine-protein kinase JAK1; assay: Inhibition of human JAK1 kinase domain incubated for 1 hrs in the presence of ATP by spectrophotometric analysis
[21] = target: T4, Non-receptor tyrosine-protein kinase TYK2; assay: Inhibition of human TYK2 kinase domain incubated for 1 hrs in the presence of ATP by spectrophotometric analysis
Homo sapiens [22] = species on record: Homo sapiens; assay: Selectivity index, ratio of IC50 for inhibition of human TYK2 kinase domain to IC50 for inhibition of human JAK2 kinase domain incubated for 1 hrs in the presence of ATP by spectrophotometric analysis
[23] = target: T2, Tyrosine-protein kinase JAK2; assay: Inhibition of human JAK2 kinase domain incubated for 1 hrs in the presence of ATP by spectrophotometric analysis
BaF3 [24] = assay: Antiproliferative activity against mouse BaF3 cells expressing TEL fused JAK2 incubated for 72 hrs by MTT assay; type: functional, cell-based; details: BaF3, 72 h
BaF3 [25] = assay: Antiproliferative activity against mouse BaF3 cells harboring JAK2 V617F mutation incubated for 72 hrs by MTT assay; type: functional, cell-based; details: BaF3, 72 h
[26] = target: T3, Tyrosine-protein kinase JAK3; assay: Inhibition of human JAK3 kinase domain incubated for 1 hrs in the presence of ATP by spectrophotometric analysis
Homo sapiens [27] = species on record: Homo sapiens; assay: Selectivity index, ratio of IC50 for inhibition of human JAK3 kinase domain to IC50 for inhibition of human JAK2 kinase domain incubated for 1 hrs in the presence of ATP by spectrophotometric analysis
Homo sapiens [28] = species on record: Homo sapiens; assay: Selectivity index, ratio of IC50 for inhibition of human JAK1 kinase domain to IC50 for inhibition of human JAK2 kinase domain incubated for 1 hrs in the presence of ATP by spectrophotometric analysis
BaF3 [29] = assay: Inhibition of cell proliferation in mouse BaF3 cells expressing JAK2 V617F mutant; type: toxicity, cell-based
BaF3 [30] = assay: Inhibition of cell proliferation in IL-3 stimulated mouse BaF3 cells expressing wild-type JAK2; type: toxicity, cell-based
[31] = target: T4, Non-receptor tyrosine-protein kinase TYK2; assay: Inhibition of TYK2 (unknown origin)
[32] = target: Tyrosine-protein kinase JAK2 (Mus musculus, UniProt Q62120); assay: Inhibition of IL-3 stimulated wild type JAK2-mediated signalling in mouse BaF3 cells preincubated with compound for 5 hrs followed by IL-3 stimulation and measured after 20 mins by Alphascreen SureFire assay; type: cell-based
[33] = Inhibition of STAT5 phosphorylation in mouse BaF3 cells expressing JAK2 V617F mutant incubated for 5 hrs by Alphascreen SureFire assay; type: cell-based; details: BaF3, 5 h
Homo sapiens [34] = species on record: Homo sapiens; assay: Selectivity index, ratio of IC50 for inhibition of JAK2 (unknown origin) to IC50 for inhibition of JAK1 (unknown origin)
[35] = target: T3, Tyrosine-protein kinase JAK3; assay: Inhibition of JAK3 (unknown origin)
[36] = target: T1, Tyrosine-protein kinase JAK1; assay: Inhibition of JAK1 (unknown origin)
Homo sapiens [37] = species on record: Homo sapiens; assay: Selectivity index, ratio of IC50 for inhibition of TYK2 (unknown origin) to IC50 for inhibition of JAK1 (unknown origin)
[38] = target: T2, Tyrosine-protein kinase JAK2; assay: Inhibition of JAK2 (unknown origin)
Homo sapiens [39] = species on record: Homo sapiens; assay: Selectivity index, ratio of IC50 for inhibition of JAK3 (unknown origin) to IC50 for inhibition of JAK1 (unknown origin)

T2 sequence (O60674 whole entry): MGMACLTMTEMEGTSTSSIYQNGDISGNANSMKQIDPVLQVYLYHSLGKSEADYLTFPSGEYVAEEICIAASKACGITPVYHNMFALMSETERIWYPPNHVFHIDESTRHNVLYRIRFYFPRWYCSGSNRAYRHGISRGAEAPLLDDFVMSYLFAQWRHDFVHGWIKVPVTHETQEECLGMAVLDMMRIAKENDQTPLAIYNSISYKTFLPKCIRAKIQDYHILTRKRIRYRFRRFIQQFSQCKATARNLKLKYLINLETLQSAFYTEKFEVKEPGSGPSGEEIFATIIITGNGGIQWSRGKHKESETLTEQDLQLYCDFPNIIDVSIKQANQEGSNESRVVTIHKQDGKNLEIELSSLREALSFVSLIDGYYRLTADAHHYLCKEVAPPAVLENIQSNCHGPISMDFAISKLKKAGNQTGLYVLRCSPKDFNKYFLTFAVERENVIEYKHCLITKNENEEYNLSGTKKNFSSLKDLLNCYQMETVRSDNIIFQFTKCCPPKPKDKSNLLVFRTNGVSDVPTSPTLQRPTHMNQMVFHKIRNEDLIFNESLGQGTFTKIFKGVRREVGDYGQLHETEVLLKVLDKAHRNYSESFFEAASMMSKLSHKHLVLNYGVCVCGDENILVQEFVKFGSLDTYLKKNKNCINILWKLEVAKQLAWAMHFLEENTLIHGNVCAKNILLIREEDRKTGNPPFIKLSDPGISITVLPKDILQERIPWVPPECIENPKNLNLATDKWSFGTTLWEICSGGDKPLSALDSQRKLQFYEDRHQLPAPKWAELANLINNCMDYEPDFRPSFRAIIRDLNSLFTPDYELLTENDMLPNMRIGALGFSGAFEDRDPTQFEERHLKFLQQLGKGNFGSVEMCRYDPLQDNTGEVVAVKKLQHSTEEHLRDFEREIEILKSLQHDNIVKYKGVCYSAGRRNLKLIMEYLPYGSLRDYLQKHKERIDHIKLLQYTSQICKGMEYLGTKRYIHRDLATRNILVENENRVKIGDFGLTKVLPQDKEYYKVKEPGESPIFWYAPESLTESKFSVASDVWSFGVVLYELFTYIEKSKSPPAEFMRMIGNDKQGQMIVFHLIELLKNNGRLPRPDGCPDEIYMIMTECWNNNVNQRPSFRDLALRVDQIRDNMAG
T4 sequence (P29597 whole entry, the tested form may be a part): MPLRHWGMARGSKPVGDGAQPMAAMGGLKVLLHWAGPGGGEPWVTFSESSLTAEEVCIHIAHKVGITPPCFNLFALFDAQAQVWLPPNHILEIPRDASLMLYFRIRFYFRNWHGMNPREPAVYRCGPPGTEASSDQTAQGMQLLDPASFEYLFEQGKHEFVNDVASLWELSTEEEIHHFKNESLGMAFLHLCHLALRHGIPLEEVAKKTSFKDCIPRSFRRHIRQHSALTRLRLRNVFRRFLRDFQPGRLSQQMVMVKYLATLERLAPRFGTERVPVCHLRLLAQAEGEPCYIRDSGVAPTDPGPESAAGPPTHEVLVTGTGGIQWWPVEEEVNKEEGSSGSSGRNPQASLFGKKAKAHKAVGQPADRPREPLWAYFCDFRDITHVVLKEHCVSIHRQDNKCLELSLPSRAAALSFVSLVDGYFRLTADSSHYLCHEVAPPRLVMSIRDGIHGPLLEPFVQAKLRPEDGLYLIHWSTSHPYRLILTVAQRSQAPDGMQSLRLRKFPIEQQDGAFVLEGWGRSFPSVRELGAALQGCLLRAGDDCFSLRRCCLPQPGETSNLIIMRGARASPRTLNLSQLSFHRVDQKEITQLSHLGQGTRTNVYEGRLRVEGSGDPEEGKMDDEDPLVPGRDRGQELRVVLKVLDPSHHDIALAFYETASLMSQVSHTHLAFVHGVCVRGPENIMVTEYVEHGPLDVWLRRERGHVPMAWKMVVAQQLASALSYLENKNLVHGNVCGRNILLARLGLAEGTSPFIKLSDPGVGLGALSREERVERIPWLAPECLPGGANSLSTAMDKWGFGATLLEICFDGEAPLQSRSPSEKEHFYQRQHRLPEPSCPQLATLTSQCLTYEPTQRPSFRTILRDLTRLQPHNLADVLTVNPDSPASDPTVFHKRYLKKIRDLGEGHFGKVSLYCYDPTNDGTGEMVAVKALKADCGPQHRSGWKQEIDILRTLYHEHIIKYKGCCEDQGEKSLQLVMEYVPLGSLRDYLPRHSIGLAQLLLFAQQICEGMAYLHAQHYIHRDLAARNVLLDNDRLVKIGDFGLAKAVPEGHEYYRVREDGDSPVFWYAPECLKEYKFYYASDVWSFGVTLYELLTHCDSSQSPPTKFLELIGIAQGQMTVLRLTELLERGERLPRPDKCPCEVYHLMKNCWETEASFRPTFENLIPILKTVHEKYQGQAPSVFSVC
T1 sequence (P23458 whole entry): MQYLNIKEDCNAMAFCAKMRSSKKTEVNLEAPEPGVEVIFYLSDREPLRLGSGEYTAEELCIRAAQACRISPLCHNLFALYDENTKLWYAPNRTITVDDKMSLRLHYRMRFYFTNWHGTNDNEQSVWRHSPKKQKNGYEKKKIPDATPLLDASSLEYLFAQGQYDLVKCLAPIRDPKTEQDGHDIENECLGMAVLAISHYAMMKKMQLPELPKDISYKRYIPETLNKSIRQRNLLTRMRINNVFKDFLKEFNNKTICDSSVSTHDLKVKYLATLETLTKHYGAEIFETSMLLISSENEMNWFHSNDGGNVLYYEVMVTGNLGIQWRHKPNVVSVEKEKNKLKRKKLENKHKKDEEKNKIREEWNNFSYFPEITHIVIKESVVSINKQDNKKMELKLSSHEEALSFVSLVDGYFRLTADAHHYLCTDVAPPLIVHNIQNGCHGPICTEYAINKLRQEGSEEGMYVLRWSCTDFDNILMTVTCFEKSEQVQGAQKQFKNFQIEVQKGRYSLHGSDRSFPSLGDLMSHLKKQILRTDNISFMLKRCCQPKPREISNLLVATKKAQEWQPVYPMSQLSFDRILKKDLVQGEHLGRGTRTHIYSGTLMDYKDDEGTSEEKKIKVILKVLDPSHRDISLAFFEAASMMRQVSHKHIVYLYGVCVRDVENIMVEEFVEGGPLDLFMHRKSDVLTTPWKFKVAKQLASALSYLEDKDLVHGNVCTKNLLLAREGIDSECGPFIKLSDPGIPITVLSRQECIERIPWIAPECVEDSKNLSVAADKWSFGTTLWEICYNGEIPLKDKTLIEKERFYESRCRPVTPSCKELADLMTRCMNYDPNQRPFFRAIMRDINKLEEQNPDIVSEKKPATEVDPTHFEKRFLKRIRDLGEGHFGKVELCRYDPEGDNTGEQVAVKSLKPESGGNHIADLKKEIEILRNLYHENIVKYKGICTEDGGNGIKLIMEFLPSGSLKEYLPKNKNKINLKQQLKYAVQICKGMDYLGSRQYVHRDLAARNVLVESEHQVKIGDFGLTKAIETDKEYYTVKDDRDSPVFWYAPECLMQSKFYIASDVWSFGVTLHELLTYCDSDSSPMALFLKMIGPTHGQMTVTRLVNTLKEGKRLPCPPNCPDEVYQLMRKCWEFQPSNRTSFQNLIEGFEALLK
Tyrosine-protein kinase JAK2 (Mus musculus, UniProt Q62120), sequence (Q62120 whole entry): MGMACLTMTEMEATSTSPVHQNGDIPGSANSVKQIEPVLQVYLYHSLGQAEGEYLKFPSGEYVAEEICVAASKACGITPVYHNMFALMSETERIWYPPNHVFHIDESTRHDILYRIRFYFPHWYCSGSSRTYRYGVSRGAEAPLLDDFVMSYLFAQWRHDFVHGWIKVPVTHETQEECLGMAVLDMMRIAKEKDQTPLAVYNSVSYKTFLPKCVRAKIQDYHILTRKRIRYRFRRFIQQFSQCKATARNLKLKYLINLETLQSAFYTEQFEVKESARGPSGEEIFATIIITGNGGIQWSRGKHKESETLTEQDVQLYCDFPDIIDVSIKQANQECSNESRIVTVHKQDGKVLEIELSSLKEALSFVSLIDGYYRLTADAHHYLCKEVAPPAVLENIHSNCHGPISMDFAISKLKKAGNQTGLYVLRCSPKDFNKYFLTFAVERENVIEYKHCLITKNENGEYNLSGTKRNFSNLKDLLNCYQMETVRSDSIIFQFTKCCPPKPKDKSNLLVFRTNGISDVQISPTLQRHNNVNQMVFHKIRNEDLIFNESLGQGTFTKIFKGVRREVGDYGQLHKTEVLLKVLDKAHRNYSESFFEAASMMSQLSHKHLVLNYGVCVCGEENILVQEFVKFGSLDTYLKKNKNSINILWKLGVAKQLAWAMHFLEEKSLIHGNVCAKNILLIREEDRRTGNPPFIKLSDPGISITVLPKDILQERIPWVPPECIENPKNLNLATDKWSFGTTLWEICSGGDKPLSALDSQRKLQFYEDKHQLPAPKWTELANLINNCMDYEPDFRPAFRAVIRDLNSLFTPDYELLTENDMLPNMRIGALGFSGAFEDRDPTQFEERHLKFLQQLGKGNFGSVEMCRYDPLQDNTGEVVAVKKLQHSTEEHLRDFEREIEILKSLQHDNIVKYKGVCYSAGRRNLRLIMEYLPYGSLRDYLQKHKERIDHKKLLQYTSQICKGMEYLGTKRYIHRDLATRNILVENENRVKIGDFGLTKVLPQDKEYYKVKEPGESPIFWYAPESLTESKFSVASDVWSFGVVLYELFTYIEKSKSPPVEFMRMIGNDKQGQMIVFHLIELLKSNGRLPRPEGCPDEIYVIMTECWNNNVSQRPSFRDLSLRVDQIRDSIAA

CN(C)C(=O)/C(C#N)=C/c1ccc(-c2nc3cnc4[nH]ccc4c3n2C2CCCCC2)o1
IC50 [1]: 1000 nM

O=C(Nc1c[nH]nc1-c1nc2ccc(CN3CCOCC3)cc2[nH]1)NC1CC1 [AT-9283]
inhibition in vivo at 15 mg/kg (HCT-116 [2]): 67%
inhibition in vivo at 20 mg/kg (HCT-116 [3]): 76%

CCS(=O)(=O)N1CC(CC#N)(n2cc(-c3ncnc4[nH]ccc34)cn2)C1 [BARICITINIB]
Activity (Rattus norvegicus [4]): >95%
Activity (Rattus norvegicus [5]): 50%

Cc1cnc(Nc2ccc(OCCN3CCCC3)cc2)nc1Nc1cccc(S(=O)(=O)NC(C)(C)C)c1 [FEDRATINIB]
IC50 (HEL): 305 nM
IC50 (BaF3 [6]): 270 nM
IC50 at 72 h [7]: 420 nM

Cc1cc(Nc2nc(N[C@@H](C)c3ncc(F)cn3)ncc2Cl)n[nH]1 [AZD-1480]
IC50 [8]: 1.3 nM
IC50 [9]: 0.4 nM

CC(C)(C)c1nc2c3ccc(F)cc3c3c(=O)[nH]ccc3c2[nH]1
IC50 (U-266): 250 nM

CC[C@@](C)(Nc1ccnc(-c2c[nH]c3ncccc23)n1)C(=O)NCC(F)(F)F [DECERNOTINIB]
IC50 [10]: 50 nM
IC50 [11]: 50 nM
Ki [12]: 11 nM
IC50 [13]: 50 nM
IC50 (B cell): 50 nM
IC50 [14]: 50 nM

Cc1cnc(Nc2ccc(N3CCN(C)CC3)cc2)nc1Nc1cccc(S(=O)(=O)NC(C)(C)C)c1
IC50 [15]: 17 nM

Cc1cc(Nc2ccc3nc(C)n([C@@H]4CCc5ccc(F)cc54)c3c2)[nH]n1
IC50 [16]: 8 nM
IC50 [17]: 2 nM

CNS(=O)(=O)C[C@H]1CC[C@H](N(C)c2ncnc3[nH]ccc23)CC1 [OCLACITINIB]
IC50 [18]: 99 nM
IC50 [19]: 84 nM

C[C@H](Nc1cc(-c2cnn(C)c2)cc(Nc2cnccn2)n1)c1ccc(F)cc1 [NS-018]
IC50 [20]: 33 nM
IC50 [21]: 22 nM
Ratio IC50 (Homo sapiens [22]): 31
IC50 [23]: 0.72 nM
IC50 (BaF3 [24]): 11 nM
IC50 (BaF3 [25]): 11 nM
IC50 [26]: 39 nM
Ratio IC50 (Homo sapiens [27]): 54
Ratio IC50 (Homo sapiens [28]): 46

Cc1cc(Nc2cc(CN3CCOCC3)c3nc(C)c(Cc4ccc(Cl)cc4F)n3n2)n[nH]1 [GANDOTINIB]
IC50 (BaF3 [29]): 55 nM
IC50 (BaF3 [30]): 1310 nM
IC50 [16]: 48 nM
IC50 [31]: 44 nM
IC50 [32]: 1180 nM
IC50 [33]: 20 nM

N#CCC1(n2cc(-c3ncnc4[nH]ccc34)cn2)CN(C2CCN(C(=O)c3ccnc(C(F)(F)F)c3F)CC2)C1 [ITACITINIB]
Ratio IC50 (Homo sapiens [34]): > 20
IC50 [35]: 2000 nM
IC50 [36]: 2 nM
Ratio IC50 (Homo sapiens [37]): > 100
IC50 [31]: 795 nM
IC50 [38]: 63 nM
Ratio IC50 (Homo sapiens [39]): > 100

CC1(C)CN(C(=O)c2ccc(-c3cccc4nc(NC(=O)C5CC5)nn34)cc2)C1 [SOLCITINIB]
Ratio IC50 (Homo sapiens [34]): 11
IC50 [35]: 539 nM
IC50 [36]: 9.8 nM
Ratio IC50 (Homo sapiens [37]): 23
IC50 [31]: 225 nM
IC50 [38]: 108 nM
Ratio IC50 (Homo sapiens [39]): 55
